{"source": "patent US20250282818A1", "about": "“SYRBACTIN MACROLACTAMS AND UNNATURAL ANALOGS AS PROTEASOME INHIBITORS FOR THE TREATMENT OF MULTIPLE MYELOMA AND CHEMOENZYMATIC SYNTHESIS THEREOF” (UNIVERSITY OF FLORIDA RESEARCH FOUNDATION,INCORPORATED, priority 2022, published 2025)", "key": {"[1]": {"tested_on": "human MM (RPMI8226, U266, H929) and MCL (JeKo-1, HBL2, Mino) cell lines", "assay": "MM and MCL cytotoxicity EC50 measurements, cell line panel", "type": "cell-based", "details": "3 MM and 3 MCL cell lines, 48 hours", "method": "(§1) Finally, we sought to compare the new lead analog (50) against the clinical drug bortezomib. It has been shown that in addition to MM, mantle cell lymphoma (MCL) is also sensitive to proteasome inhibition. Indeed, bortezomib itself is FDA-approved for the treatment of MCL.^23 Therefore, we compared 50 and bortezomib in 3 different cell lines of both MM and MCL (FIG. 6E, FIG. 7).\n(§2) Cells were seeded in a 96-well plate (20,000 cells/well) in cell culture media supplemented with indicated compounds (1,000× stock in DMSO) or DMSO and cultured for 48 hours. Toxicity was determined using the WST-1 assay (Roche) according to the protocol of the manufacturer. (n=3)"}, "[2]": {"tested_on": "upregulated protein expression", "assay": "Global proteomics experiments", "type": "cell-based, human"}, "proteasome subunit β5": {"biological_target": "T1, proteasome subunit β5 (Homo sapiens, UniProt P28074)", "T1 construct": "Cells were then collected and lysed; endogenous in cells; host or cells: RPMI 8226", "assay": "Proteasome inhibition IC50 measurements in RPMI 8226 cells, substrate Suc-LLVY-AMC (β5)", "type": "cell-based", "excerpt": "Our preliminary series of analogs (FIG. 3), including the natural product glidobactin A (2), were synthesized by largely the same route (FIG. 2).^13 Desoxycepafungin (38) was synthesized from Boc-Lys(Boc)-OH to assess the role of the macrocycle hydroxylation in 1 towards proteasome inhibition. The saturated cepafungin analog 39 was designed to address the possible role of rigidity in the tail fragment induced by the diene seen in many natural cepafungins and glidobactins. An analog bearing unsaturation at its macrocyclic lysine was envisioned to provide a head-to-head comparison between the cepafungin and syringolin A (4) macrocyclic core. […] Proteasome subunit β5 IC50 values were determined in situ in RPMI 8226 cells (FIG. 3). In close agreement with prior measurement of β5 IC50 for natural 1 and 2 in purified yeast proteasome,^8 in our hands the additional branching methyl in 1 indeed leads to ca. 5-fold improved IC50 compared to 2 in RPMI 8226 cells. […] Likewise, saturation of the fatty acid fragment in 39 causes ca. 14-fold decrease in β5 inhibition. This preliminary series of analogs highlighted that the macrocyclic hydroxylation, fatty acid unsaturation, and terminal lipid functionality are critical for potent proteasome inhibitory activity.\n(§3) Cellular assays were performed with human multiple myeloma cell line RPMI 8226. First, relative inhibition of proteasome subunits β5 and β2 for all analogs and the natural product was measured at 30 nM compound concentration. Following incubation of the analogs in cell culture for 6 hours, cells were lysed and fluorogenic subunit-specific peptide substrates Suc-LLVY-AMC (β5) or Ac-RLR-AMC (β2) were incubated with the lysates, and fluorescence readings provided relative proteasome activity levels with respect to DMSO (FIG. 6A). Next, cytotoxicity screening was performed at 30 nM and 100 nM concentrations for better coverage of dynamic range (FIG. 6B). […] Therefore, the improved cytotoxicity of phenyl cepafungin 50 likely results from a more pronounced loss of β5 function in RPMI 8226 cells. This drastic increase in proteasome inhibition may be due to pi-stacking of the lipid tail phenyl ring with the β6 subunit residues Tyr106 and/or Tyr5. The β2 subunit-bound natural product has residues Tyr102 and Phe103 on the adjacent β3 subunit oriented further away from the terminal lipid methyl groups, and presumably would not facilitate pi-stacking to the extent possible at the adjacent β6 subunit (see FIG. 4, FIG. 9). […]\n(§4) RPMI 8226 cells were seeded in a 6-well plate (1,000,000 cells/well) in cell culture media supplemented with indicated compounds (1,000× stock in DMSO) or DMSO and cultured for 6 hours. […] The plates were incubated at 37° C. for one hour and fluorescence was read at A360ex/A460em. […]"}, "20S proteasome": {"biological_target": "T2, 20S proteasome (Homo sapiens, UniProt P28074+Q99436)", "T2 construct": "endogenous in cells", "T2 sequence (P28074 60-263)": "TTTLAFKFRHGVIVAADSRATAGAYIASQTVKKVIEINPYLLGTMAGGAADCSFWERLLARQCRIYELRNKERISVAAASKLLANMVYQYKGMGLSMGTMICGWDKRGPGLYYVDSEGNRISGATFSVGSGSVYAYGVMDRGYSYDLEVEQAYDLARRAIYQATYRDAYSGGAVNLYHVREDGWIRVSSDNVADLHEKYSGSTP", "T2 sequence (Q99436 44-277)": "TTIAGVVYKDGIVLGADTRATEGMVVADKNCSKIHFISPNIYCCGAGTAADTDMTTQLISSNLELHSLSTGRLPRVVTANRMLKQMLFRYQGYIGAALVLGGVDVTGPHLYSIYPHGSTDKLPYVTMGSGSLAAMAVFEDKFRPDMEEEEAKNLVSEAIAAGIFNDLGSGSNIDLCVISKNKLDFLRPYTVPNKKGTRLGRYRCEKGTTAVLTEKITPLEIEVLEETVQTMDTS", "assay": "In-gel competitive profiling and in situ competitive LC-MS/MS based chemoproteomics", "type": "cell-based", "details": "human MM cells, alkyne-tagged probe analog", "excerpt": "Prior to our work, a major knowledge gap in the bioactivity of cepafungin was its engagement of the proteasome in human MM cells and selectivity in targeting the proteasome over a multitude of other proteases. To address this, an alkyne-tagged probe analog was synthesized by our chemoenzymatic route and used for classical chemoproteomics studies."}, "[3]": {"biological_target": "β5 subunit of purified yeast proteasome (Saccharomyces cerevisiae, UniProt P23724+P30656)", "details": "literature ref. 8; cited from earlier work"}, "β2 and β5 subunits": {"tested_on": "β2 and β5 subunits", "details": "introduction, no test specified; cited from earlier work"}, "proteasome subunit β2": {"tested_on": "proteasome subunit β2", "assay": "Proteasome inhibition IC50 measurements in RPMI 8226 cells, substrate Ac-RLR-AMC (β2)", "type": "cell-based, human", "details": "6 hours", "method": "as §3, with “Tyr5.” for “Tyr5. The β2 subunit-bound natural product has residues Tyr102 and Phe103 on the adjacent β3 subunit oriented further away from the terminal lipid methyl groups, and presumably would not facilitate pi-stacking to the extent possible at the adjacent β6 subunit (see FIG. 4, FIG. 9).”\nas §4"}, "RPMI 8226 cells [4]": {"tested_on": "RPMI 8226 cells", "assay": "RPMI 8226 cytotoxicity EC50 measurements (WST-1)", "type": "cell-based, human", "method": "(§5) RPMI 8226 cells were seeded in a 96-well plate (20,000 cells/well) in cell culture media supplemented with indicated compounds (1,000× stock in DMSO) or DMSO and cultured for 48 hours. Toxicity was determined using the WST-1 assay (Roche) according to the protocol of the manufacturer. (n=3)\nas §5, with “Cytotoxicity of phenyl cepafungin (50) and hybrid analog (S39) in RPMI 8226 RPMI” for “RPMI”"}, "RPMI 8226 cells [5]": {"tested_on": "RPMI 8226 cells", "assay": "RPMI8226 cytotoxicity screening (WST-1)", "type": "cell-based, human", "details": "30 nM and 100 nM, cytotoxicities track with proteasome inhibition at 30 nM", "method": "Cellular assays were performed with human multiple myeloma cell line RPMI 8226. First, relative inhibition of proteasome subunits β5 and β2 for all analogs and the natural product was measured at 30 nM compound concentration. Following incubation of the analogs in cell culture for 6 hours, cells were lysed and fluorogenic subunit-specific peptide substrates Suc-LLVY-AMC (β5) or Ac-RLR-AMC (β2) were incubated with the lysates, and fluorescence readings provided relative proteasome activity levels with respect to DMSO (FIG. 6A). Next, cytotoxicity screening was performed at 30 nM and 100 nM concentrations for better coverage of dynamic range (FIG. 6B). […] Therefore, the improved cytotoxicity of phenyl cepafungin 50 likely results from a more pronounced loss of β5 function in RPMI 8226 cells. This drastic increase in proteasome inhibition may be due to pi-stacking of the lipid tail phenyl ring with the β6 subunit residues Tyr106 and/or Tyr5. The β2 subunit-bound natural product has residues Tyr102 and Phe103 on the adjacent β3 subunit oriented further away from the terminal lipid methyl groups, and presumably would not facilitate pi-stacking to the extent possible at the adjacent β6 subunit (see FIG. 4, FIG. 9). […] These combined modifications were made in hopes that the effects of both substitutions would be additive.\n[…] Toxicity was determined using the WST-1 assay (Roche) according to the protocol of the manufacturer. (n=3)"}, "U266": {"tested_on": "U266", "assay": "MM and MCL cytotoxicity EC50 measurements, U266", "type": "cell-based", "details": "Homo sapiens, U-266; U266, 48 hours, WST-1", "method": "as §1, §2"}}, "note": "Entries after “also recorded” stand apart in the source; their conditions may differ."}
{"smiles": "CC(C)C[C@H](NC(=O)[C@H](Cc1ccccc1)NC(=O)c1cnccn1)B(O)O", "note": "[bortezomib, reference compound]", "values": [{"measurement": "cytotoxicity compared with bortezomib, in words", "setting": "[1]", "value": "low-nanomolar cytotoxicity"}, {"measurement": "overlap in upregulated protein expression between 1 and bortezomib", "setting": "[2]", "value": "high degree of overlap in upregulated protein expression"}]}
{"smiles": "CC(C)CCCCC/C=C/C=C\\C(=O)N[C@H](C(=O)N[C@H]1C[C@H](O)CCNC(=O)/C=C\\[C@H](C)NC1=O)[C@@H](C)O", "note": "[compound 1, cepafungin I]", "values": [{"measurement": "fold improved β5 IC50 of 1 compared to 2", "setting": "proteasome subunit β5; in situ in RPMI 8226 cells", "value": "ca. 5 fold"}, {"measurement": "fold improved β5 inhibition of 1 compared to desoxy-cepafungin analog 38", "setting": "proteasome subunit β5; in situ in RPMI 8226 cells", "value": "ca. 11 fold"}, {"measurement": "selectivity of proteasome engagement, in words", "setting": "20S proteasome", "value": "exceptional selectivity"}, {"measurement": "selectivity of proteasome engagement, in words", "setting": "20S proteasome; listed as cepafungin", "value": "exceptional selectivity towards several proteasome subunits"}, {"measurement": "overlap in upregulated protein expression between 1 and bortezomib", "setting": "[2]", "value": "high degree of overlap in upregulated protein expression"}, {"measurement": "fold improvement of β5-subunit inhibition compared to glidobactin A (2)", "setting": "[3]", "value": "ca. 5 fold"}, {"measurement": "proteasome inhibitory activity, in words", "setting": "β2 and β5 subunits", "value": "most potent proteasome inhibitor among the syrbactins; also recorded: low nanomolar inhibitory activity"}]}
{"smiles": "C[C@H]1/C=C/C(=O)NCC[C@H](O)C[C@H](NC(=O)[C@@H](NC(=O)/C=C/C=C/CCCCCc2ccccc2)[C@@H](C)O)C(=O)N1", "note": "[compound 50, (2E,4E)-N-((2S,3R)-3-hydroxy-1-(((5S,8S,10S,E)-10-hydroxy-5-methyl-2,7-dioxo-1,6-diazacyclododec-3-en-8-yl)amino)-1-oxobutan-2-yl)-10-phenyldeca-2,4-dienamide]", "values": [{"measurement": "fold lower β5 IC50 than 1 / fold greater β5 inhibitory activity", "setting": "proteasome subunit β5; RPMI 8226 cells, 6 hours", "value": 7, "unit": "fold"}, {"measurement": "β2 subunit IC50 compared with 1, in words", "setting": "proteasome subunit β2", "value": "roughly similar IC50"}, {"measurement": "EC50", "setting": "RPMI 8226 cells [4]; Homo sapiens, RPMI 8226, 48 hours, WST-1", "value": 3, "unit": "nM"}, {"measurement": "fold greater cytotoxicity than parent cepafungin I 1", "setting": "RPMI 8226 cells [4]; RPMI 8226, EC50 comparison", "value": "4-5 fold"}, {"measurement": "potency compared with parent natural product 1 in screening (FIG. 6A, 6B)", "setting": "RPMI 8226 cells [5]", "value": "more potent than the parent natural product 1; also recorded: most potent"}, {"measurement": "EC50", "setting": "U266", "value": "~20", "unit": "nM"}, {"measurement": "cytotoxicity compared with bortezomib, in words", "setting": "[1]", "value": "similarly low-nanomolar cytotoxicity in all cell lines as bortezomib except for U266"}]}
